Measurements published in patent US20130096141A1, “BICYCLIC HETEROCYCLE DERIVATIVES AND METHODS OF USE THEREOF” (priority 2010, published 2013).

What follows are molecules tested against T1, GPR119 receptor (Homo sapiens, UniProt Q8TDV5) (assay: cAMP assay in cells transfected with the GPR119 receptor (human)). Details: increase in intracellular cAMP, read-out: h-cAMP EC50.
T1 construct: expressed in transfected cells
T1 sequence (Q8TDV5 1-335): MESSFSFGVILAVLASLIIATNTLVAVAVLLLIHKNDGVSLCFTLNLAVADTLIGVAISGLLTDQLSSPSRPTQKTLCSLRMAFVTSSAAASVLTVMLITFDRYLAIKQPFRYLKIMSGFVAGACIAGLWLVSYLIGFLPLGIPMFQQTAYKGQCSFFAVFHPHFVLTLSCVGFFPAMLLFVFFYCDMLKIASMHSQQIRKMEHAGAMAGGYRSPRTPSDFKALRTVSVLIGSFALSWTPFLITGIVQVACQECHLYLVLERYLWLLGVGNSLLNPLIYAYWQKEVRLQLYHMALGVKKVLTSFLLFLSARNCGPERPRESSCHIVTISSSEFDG
Format: cell-based
Protocol: The activity of these compounds may be assayed in cells transfected the GPR119 receptor (human, mouse, rat or monkey). Incubation with the above compounds results in an increase in intracellular cAMP, from which an EC50 value may be calculated. Ki values for compounds at this receptor can be determined by employing a radio-labeled agonist. In vivo activity can be determined by conducting an oral glucose-tolerance test in an appropriate species, such as mouse.

Row | SMILES | EC50 [nM]
1 | COCc1ccc(-c2csc3c(OC4C5COCC4CN(C(=O)OC4(C)CC4)C5)ncnc23)c(F)c1 (stereo not shown) [Example 30] | 0.74
2 | CCS(=O)(=O)c1ccc(-c2csc3c(OC4C5COCC4CN(C(=O)OC4(C)CC4)C5)ncnc23)cc1 (stereo not shown) [Example 43] | 0.38
3 | CC(C)(C)OC(=O)N1CC2COCC(C1)C2Oc1ncnc2c(-c3ccc(C#N)cc3Cl)csc12 (stereo not shown) [Example 9] | 47
4 | Cc1c(F)ccc(-c2csc3c(OC4C5COCC4CN(C(=O)OC4(C)CC4)C5)ncnc23)c1F (stereo not shown) [Example 49] | 1.7
5 | COC(=O)COc1ccc(-c2csc3c(OC4C5COCC4CN(C(=O)OC4(C)CC4)C5)ncnc23)c(F)c1 (stereo not shown) [Example 46] | 2.5
6 | COc1ccc(-c2csc3c(OC4C5COCC4CN(C(=O)OC4(C)CC4)C5)ncnc23)c(Cl)c1 (stereo not shown) [Example 38] | 0.44
7 | CC1(OC(=O)N2CC3COCC(C2)C3Oc2ncnc3c(-c4ccc(F)c(CO)c4F)csc23)CC1 (stereo not shown) [Example 48] | 1.4
8 | CC1(OC(=O)N2CC3COCC(C2)C3Oc2ncnc3c(-c4ncc(F)cc4F)csc23)CC1 (stereo not shown) [Example 40] | 0.51
9 | CS(=O)(=O)c1ccc(-c2csc3c(OC4C5COCC4CN(c4ncc(Cl)cn4)C5)ncnc23)c(F)c1 (stereo not shown) [Example 4] | 23
10 | CC1(OC(=O)N2CC3COCC(C2)C3Oc2ncnc3c(-c4ccc(S(C)(=O)=O)cc4F)csc23)CC1 (stereo not shown) [Example 41] | 0.47
11 | CC(C)(C)OC(=O)N1CC2COCC(C1)C2Oc1ncnc2c(-c3ccc(F)cc3F)csc12 (stereo not shown) [Example 5] | 18
12 | Cn1cc(-c2ccc(S(C)(=O)=O)cc2F)c2ncnc(OC3C4COCC3CN(c3ncc(Cl)cn3)C4)c21 (stereo not shown) [Example 21] | 5.3
13 | CC1(OC(=O)N2CC3COCC(C2)C3Oc2ncnc3c(-c4ccc(C#N)cc4)csc23)CC1 (stereo not shown) [Example 47] | 1
14 | Cc1ccc(-c2csc3c(OC4C5COCC4CN(C(=O)OC4(C)CC4)C5)ncnc23)c(F)c1 (stereo not shown) [Example 39] | 0.36
15 | CS(=O)(=O)c1ccc(-c2csc3c(OC4C5COCC4CN(CC(F)(F)C(F)(F)F)C5)ncnc23)c(F)c1 (stereo not shown) [Example 33] | 1
16 | CCCc1cnc(N2CC3COCC(C2)C3Oc2ncnc3c(-c4ccc(S(C)(=O)=O)cc4F)csc23)nc1 (stereo not shown) [Example 8] | 150
17 | CC1(OC(=O)N2CC3COCC(C2)C3Oc2ncnc3c(-c4ccc(C#N)cc4Cl)csc23)CC1 (stereo not shown) [Example 10] | 24
18 | CC1(OC(=O)N2CC3COCC(C2)C3Oc2ncnc3c(-c4ccc(C(=O)C5CC5)cc4Cl)csc23)CC1 (stereo not shown) [Example 12] | 86
19 | CC(C)(C)OC(=O)N1CC2COCC(C1)C2Oc1ncnc2c(-c3ccc(C#N)cc3F)csc12 (stereo not shown) [Example 1] | 8
20 | CC1(OC(=O)N2CC3COCC(C2)C3Oc2ncnc3c(-c4ccc(F)cc4C#N)csc23)CC1 (stereo not shown) [Example 24] | 1.2
21 | CC1(OC(=O)N2CC3COCC(C2)C3Oc2ncnc3c(-c4ccc(OCCO)cc4F)csc23)CC1 (stereo not shown) [Example 51] | 0.65
22 | CS(=O)(=O)c1ccc(-c2csc3c(OC4C5COCC4CN(c4ncc(F)cn4)C5)ncnc23)c(F)c1 (stereo not shown) [Example 7] | 47
23 | CC(C)(O)COc1ccc(-c2csc3c(OC4C5COCC4CN(C(=O)OC4(C)CC4)C5)ncnc23)c(F)c1 (stereo not shown) [Example 52] | 0.5

Row | SMILES | EC50 [nM]
24 | COc1ccc(-c2csc3c(OC4C5COCC4CN(c4ncc(Cl)cn4)C5)ncnc23)c(F)c1 (stereo not shown) [Example 28] | 2.1
25 | N#Cc1ccc(-c2csc3c(OC4C5COCC4CN(CC(F)(F)C(F)(F)F)C5)ncnc23)c(F)c1 (stereo not shown) [Example 37] | 1.6
26 | CC1(OC(=O)N2CC3COCC(C2)C3Oc2ncnc3c(-c4ccc(F)cc4Cl)csc23)CC1 (stereo not shown) [Example 45] | 0.1
27 | COc1ccc(-c2csc3c(OC4C5COCC4CN(C(=O)OC(C)C)C5)ncnc23)c(F)c1 (stereo not shown) [Example 27] | 0.76
28 | COC(=O)c1ccc(-c2csc3c(OC4C5COCC4CN(C(=O)OC4(C)CC4)C5)ncnc23)c(F)c1 (stereo not shown) [Example 25] | 0.46
29 | Fc1ccc(-c2csc3c(OC4C5COCC4CN(CC(F)(F)C(F)(F)F)C5)ncnc23)c(F)c1 (stereo not shown) [Example 34] | 72
30 | CC1(OC(=O)N2CC3COCC(C2)C3Oc2ncnc3c(-c4ccc(Cl)cc4F)csc23)CC1 (stereo not shown) [Example 22] | 2
31 | CC1(OC(=O)N2CC3COCC(C2)C3Oc2ncnc3c(-c4ccc(O)cc4F)csc23)CC1 (stereo not shown) [Example 44] | 1
32 | Cn1cc(-c2ccc(C#N)cc2F)c2ncnc(OC3C4COCC3CN(C(=O)OC3(C)CC3)C4)c21 (stereo not shown) [Example 17] | 13
33 | CS(=O)(=O)c1ccc(-c2c[nH]c3c(OC4C5COCC4CN(c4ncc(Cl)cn4)C5)ncnc23)c(F)c1 (stereo not shown) [Example 16] | 247
34 | Cn1cc(-c2ccc(S(C)(=O)=O)cc2F)c2ncnc(OC3C4COCC3CN(C(=O)OC3(C)CC3)C4)c21 (stereo not shown) [Example 42] | 1
35 | N#Cc1ccc(-c2csc3c(OC4C5COCC4CN(CC(F)(F)C(F)(F)F)C5)ncnc23)c(Cl)c1 (stereo not shown) [Example 36] | 35
36 | COc1ccc(-c2csc3c(OC4C5COCC4CN(C(=O)OC4(C)CC4)C5)ncnc23)c(F)c1 (stereo not shown) [Example 23] | 1.1
37 | CC1(OC(=O)N2CC3COCC(C2)C3Oc2ncnc3c(-c4ccc(CO)cc4F)csc23)CC1 (stereo not shown) [Example 29] | 0.48
38 | CC(C)(C)OC(=O)N1CC2COCC(C1)C2Oc1ncnc2c(-c3ccc(S(C)(=O)=O)cc3F)csc12 (stereo not shown) [Example 2] | 62
39 | N#Cc1ccc(-c2csc3c(OC4C5COCC4CN(c4ncc(Cl)cn4)C5)ncnc23)c(Cl)c1 (stereo not shown) [Example 11] | 18
40 | COc1ccc(-c2csc3c(OC4C5COCC4CN(CC(F)(F)C(F)(F)F)C5)ncnc23)c(F)c1 (stereo not shown) [Example 35] | 45
41 | CC1(OC(=O)N2CC3COCC(C2)C3Oc2ncnc3c(-c4ccc(S(C)(=O)=O)cc4)csc23)CC1 (stereo not shown) [Example 50] | 2.2
42 | CC1(OC(=O)N2CC3COCC(C2)C3Oc2ncnc3c(-c4ccc(C#N)cc4F)c[nH]c23)CC1 (stereo not shown) [Example 14] | 298
43 | CC1(OC(=O)N2CC3COCC(C2)C3Oc2ncnc3c(-c4ccc(F)cc4F)csc23)CC1 (stereo not shown) [Example 6] | 16
44 | CC1(OC(=O)N2CC3COCC(C2)C3Oc2ncnc3c(-c4ccc(C#N)cc4F)csc23)CC1 (stereo not shown) [Example 3] | 9
45 | COc1ccc(-c2cn(C)c3c(OC4C5COCC4CN(C(=O)OC4(C)CC4)C5)ncnc23)c(F)c1 (stereo not shown) [Example 32] | 5.7
46 | Cn1cc(-c2ccc(F)cc2F)c2ncnc(OC3C4COCC3CN(C(=O)OC3(C)CC3)C4)c21 (stereo not shown) [Example 31] | 8.4
